Earlier results in doi:10.1101/2023.04.03.535218, “Distributable, Metabolic PET Reporting of Tuberculosis” (bioRxiv, 2023).

Molecular target: T1, OtsA^Sf (Escherichia coli, UniProt P31677)
T1 construct: C-terminally tagged, purified on Ni-NTA
T1 sequence (P31677 2-474): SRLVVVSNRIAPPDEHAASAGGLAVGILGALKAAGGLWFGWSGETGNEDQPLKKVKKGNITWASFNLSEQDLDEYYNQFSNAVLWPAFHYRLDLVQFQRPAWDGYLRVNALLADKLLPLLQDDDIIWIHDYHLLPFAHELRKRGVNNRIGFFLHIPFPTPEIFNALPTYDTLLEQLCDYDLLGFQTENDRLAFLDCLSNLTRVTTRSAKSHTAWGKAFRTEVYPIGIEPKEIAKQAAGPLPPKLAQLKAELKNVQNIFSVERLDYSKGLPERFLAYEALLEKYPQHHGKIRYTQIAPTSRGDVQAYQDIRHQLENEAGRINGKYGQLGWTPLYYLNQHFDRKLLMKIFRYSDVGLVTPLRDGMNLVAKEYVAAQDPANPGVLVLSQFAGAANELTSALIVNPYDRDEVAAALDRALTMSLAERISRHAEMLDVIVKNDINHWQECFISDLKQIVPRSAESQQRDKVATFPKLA
Test: NADH-linked continuous assay (Methods)
Type: biochemical
Details: co-substrate UDP-Glc; table note a (taken from Reference 41) is also set on this row, text presents it as own

For `O=P(O)(O)OC[C@H]1OC(O)[C@H](O)[C@@H](O)[C@@H]1O` (stereo partly shown) [G6P], the Km is listed as 4.9 ± 0.5 mM.
